Data on 20 molecules can be found in patent publication US11180474B2 (BRISTOL-MYERS SQUIBB COMPANY, priority 2016, dated 2021).

The experiment addresses T1, human TLR8 (Homo sapiens, UniProt Q9NR97).
T1 construct: host or cells: HEK-Blue cells
T1 sequence (Q9NR97 27-1041): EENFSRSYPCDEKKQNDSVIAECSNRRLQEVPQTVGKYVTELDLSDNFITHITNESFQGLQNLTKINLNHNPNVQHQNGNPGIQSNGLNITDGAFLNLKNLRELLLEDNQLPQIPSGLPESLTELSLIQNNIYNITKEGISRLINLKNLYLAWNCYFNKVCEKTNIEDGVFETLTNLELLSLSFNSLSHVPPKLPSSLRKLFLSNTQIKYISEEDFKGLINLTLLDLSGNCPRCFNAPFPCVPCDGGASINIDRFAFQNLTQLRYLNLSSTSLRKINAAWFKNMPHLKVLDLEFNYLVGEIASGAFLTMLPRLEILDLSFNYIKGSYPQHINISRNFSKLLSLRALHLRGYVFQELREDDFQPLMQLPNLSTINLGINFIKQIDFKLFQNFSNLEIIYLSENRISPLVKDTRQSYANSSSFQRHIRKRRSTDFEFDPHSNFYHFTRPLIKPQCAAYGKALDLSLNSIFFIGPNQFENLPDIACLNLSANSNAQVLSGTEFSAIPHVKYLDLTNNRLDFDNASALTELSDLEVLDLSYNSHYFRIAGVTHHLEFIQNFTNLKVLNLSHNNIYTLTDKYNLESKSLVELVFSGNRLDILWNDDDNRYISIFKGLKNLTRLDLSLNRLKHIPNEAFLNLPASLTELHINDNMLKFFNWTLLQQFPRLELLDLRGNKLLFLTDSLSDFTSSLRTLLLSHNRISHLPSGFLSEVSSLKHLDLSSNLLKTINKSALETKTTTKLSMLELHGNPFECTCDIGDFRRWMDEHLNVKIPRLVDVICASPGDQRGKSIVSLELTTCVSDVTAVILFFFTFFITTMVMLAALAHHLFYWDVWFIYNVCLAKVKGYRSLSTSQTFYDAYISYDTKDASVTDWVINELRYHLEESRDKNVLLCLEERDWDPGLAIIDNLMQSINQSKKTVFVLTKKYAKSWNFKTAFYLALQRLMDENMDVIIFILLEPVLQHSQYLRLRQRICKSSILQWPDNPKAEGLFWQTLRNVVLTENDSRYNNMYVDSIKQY
As to the kind of experiment: TLR8 inhibition reporter assay (HEK-Blue cells, SEAP reporter, R848 stimulation). The class given is cell-based. Conditions: HEK-Blue cells overexpressing human TLR8, R848 15.9 μM. Summed up: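 SEAP readout via HEK-Blue Detection medium after 22 h at 37 °C, 5% CO2 defines inhibition, normalized between agonist-plus-DMSO wells and a reference inhibitor. Compound dose range 0.05 nM–50 μM; TLR7 cells at 15,000/well (gardiquimod), TLR8 at 20,000/well (R848).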
On the technique in general: A reporter such as luciferase makes a cellular process visible.
Usually IC50 stands for the concentration that inhibits the measured activity by half. Lower therefore signals higher potency. `COc1ccc(-c2[nH]c3ccc(C4CCN(CC(=O)N5CCN(C)CC5)CC4)cc3c2C(C)C)cc1OC` [Example 274, 2-(4-(2-(3,4-dimethoxyphenyl)-3-isopropyl-1H-indol-5-yl)piperidin-1-yl)-1-(4-methylpiperazin-1-yl) ethan-1-one]: the half-maximal inhibitory concentration (IC50) worked out at 228 nM. For `CCN(CC)C(=O)C1CCCN(C(=O)CN2CCC(c3ccc4[nH]c(-c5ccc(OC)c(OC)c5)c(C(C)C)c4c3)CC2)C1` (centres unmarked) [Example 272, 1-(2-(4-(2-(3,4-dimethoxyphenyl)-3-isopropyl-1H-indol-5-yl)piperidin-1-yl)acetyl)-N,N-diethylpiperidine-3-carboxamide], inhibition was half-maximal at 37 nM (IC50). Take `COc1ccc(-c2[nH]c3ccc(C4CCN(C5C[C@H]6CC[C@@H](C5)N6C)CC4)cc3c2C)cc1OC` (stereo partly drawn) [Example 21, 2-(3,4-dimethoxyphenyl)-3-methyl-5-(1-((1R,5S)-8-methyl-8-azabicyclo[3.2.1]octan-3-yl)piperidin-4-yl)-1H-indole]: the IC50 was determined as 242 nM. Consider `COc1ccc(-c2[nH]c3ccc(C4CCN(C(=O)CNC5CCC(C(C)(C)O)CC5)CC4)cc3c2C(C)C)cc1OC` (centres unmarked) [Example 245, 1-(4-(2-(3,4-dimethoxyphenyl)-3-isopropyl-1H-indol-5-yl)piperidin-1-yl)-2-((4-(2-hydroxypropan-2-yl)cyclohexyl)amino)ethan-1-one], for which the half-maximal inhibitory concentration (IC50) turned out to be 26 nM. Molecule `COc1ccc(-c2[nH]c3ccc(C4CCN(C(=O)CN5CCC[C@H](C(=O)N6CCN(Cc7ccc(Br)cc7)CC6)C5)CC4)cc3c2C(C)C)cc1OC` [Example 294, (S)-2-(3-(4-(4-bromobenzyl)piperazine-1-carbonyl)piperidin-1-yl)-1-(4-(2-(3,4-dimethoxyphenyl)-3-isopropyl-1H-indol-5-yl)piperidin-1-yl)ethan-1-one] yielded an IC50 of 554 nM. Molecule `COc1ccc(-c2[nH]c3ccc(C4CCN(CC(=O)NC5CCN(C(C)C)CC5)CC4)cc3c2C(C)C)cc1OC` [Example 273, 2-(4-(2-(3,4-dimethoxyphenyl)-3-isopropyl-1H-indol-5-yl)piperidin-1-yl)-N-(1-isopropylpiperidin-4-yl)acetamide] gave an IC50 of 29 nM. The same measure for `COc1ccc(-c2[nH]c3ccc(C4CCN(C(=O)CN5CCN(C(C)C)CC5)CC4)cc3c2C(C)C)cc1OC` [Example 240, 1-(4-(2-(3,4-dimethoxyphenyl)-3-isopropyl-1H-indol-5-yl)piperidin-1-yl)-2-(4-isopropylpiperazin-1-yl)ethan-1-one]: 34 nM; for `COc1ccc(-c2[nH]c3ccc(C4CCN(C(=O)CN5CCC[C@H](C(=O)NC(C)C)C5)CC4)cc3c2C(C)C)cc1OC` [Example 285, (S)-1-(2-(4-(2-(3,4-dimethoxyphenyl)-3-isopropyl-1H-indol-5-yl)piperidin-1-yl)-2-oxoethyl)-N-isopropylpiperidine-3-carboxamide]: 37 nM; for `CCC(CO)NCC(=O)N1CCC(c2ccc3[nH]c(-c4ccc(OC)c(OC)c4)c(C(C)C)c3c2)CC1` (centres unmarked) [Example 233, 1-(4-(2-(3,4-dimethoxyphenyl)-3-isopropyl-1H-indol-5-yl)piperidin-1-yl)-2-((1-hydroxybutan-2-yl)amino)ethan-1-one]: 27 nM. On to `COc1ccc(-c2[nH]c3ccc(C4CCN(C(=O)CN5CCC[C@@H](C(=O)N6CCN(CCN7CCCC7)CC6)C5)CC4)cc3c2C(C)C)cc1OC` [Example 307, (R)-1-(4-(2-(3,4-dimethoxyphenyl)-3-isopropyl-1H-indol-5-yl)piperidin-1-yl)-2-(3-(4-(2-(pyrrolidin-1-yl)ethyl)piperazine-1-carbonyl)piperidin-1-yl)ethan-1-one], for which the concentration for half-maximal inhibition (IC50) came to 38 nM. Molecule `COc1ccc(-c2[nH]c3ccc(C4CCN(C(=O)CN5CCC[C@H](C(=O)N6CCC(CCO)CC6)C5)CC4)cc3c2C(C)C)cc1OC` [Example 291, (S)-1-(4-(2-(3,4-dimethoxyphenyl)-3-isopropyl-1H-indol-5-yl)piperidin-1-yl)-2-(3-(4-(2-hydroxyethyl)piperidine-1-carbonyl)piperidin-1-yl)ethan-1-one] came in with a half-inhibitory concentration (IC50) of 17 nM. Molecule `COc1ccc(-c2[nH]c3ccc(C4CCN(C(=O)CNC[C@H](O)CO)CC4)cc3c2C(C)C)cc1OC` [Example 235, (S)-2-((2,3-dihydroxypropyl)amino)-1-(4-(2-(3,4-dimethoxyphenyl)-3-isopropyl-1H-indol-5-yl)piperidin-1-yl)ethan-1-one] came in with a half-inhibitory concentration (IC50) of 39 nM.

Consider `COc1ccc(-c2[nH]c3ccc(C4CCN(C(=O)CN5CCC[C@H](C(=O)N6CCCC6)C5)CC4)cc3c2C(C)C)cc1OC` [Example 287, (S)-1-(4-(2-(3,4-dimethoxyphenyl)-3-isopropyl-1H-indol-5-yl)piperidin-1-yl)-2-(3-(pyrrolidine-1-carbonyl)piperidin-1-yl)ethan-1-one], for which half-maximal inhibition (IC50) required 33 nM.

Molecule `CCN(CC)C(=O)C1CCCN(CC(=O)N2CCC(c3ccc4[nH]c(-c5ccc(OC)c(OC)c5)c(C(C)C)c4c3)CC2)C1` (centres unmarked) [Example 248, 1-(2-(4-(2-(3,4-dimethoxyphenyl)-3-isopropyl-1H-indol-5-yl)piperidin-1-yl)-2-oxoethyl)-N,N-diethylpiperidine-3-carboxamide] had an IC50 of 22 nM. Then `COc1ccc(-c2[nH]c3ccc(C4CCN(C(=O)CN5CCC[C@@H](C(=O)NCC(N)=O)C5)CC4)cc3c2C(C)C)cc1OC` [Example 309, (R)—N-(2-amino-2-oxoethyl)-1-(2-(4-(2-(3,4-dimethoxyphenyl)-3-isopropyl-1H-indol-5-yl)piperidin-1-yl)-2-oxoethyl)piperidine-3-carboxamide], with 59 nM; and `COc1ccc(-c2[nH]c3ccc(C4CCN(C(=O)CN5CCC(CO)CC5)CC4)cc3c2C(C)C)cc1OC` [Example 243, 1-(4-(2-(3,4-dimethoxyphenyl)-3-isopropyl-1H-indol-5-yl)piperidin-1-yl)-2-(4-(hydroxymethyl)piperidin-1-yl)ethan-1-one], with 16 nM; and `COc1ccc(-c2[nH]c3ccc(C4CCN(C(=O)CO)CC4)cc3c2C(C)C)cc1OC` [Example 313, 1-(4-(2-(3,4-dimethoxyphenyl)-3-isopropyl-1H-indol-5-yl)piperidin-1-yl)-2-hydroxyethanone], with 496 nM. Regarding `COc1ccc(-c2[nH]c3ccc(C4CCN(C(=O)CN5CCC[C@@H](C(=O)N6CCC(CCO)CC6)C5)CC4)cc3c2C(C)C)cc1OC` [Example 306, (R)-1-(4-(2-(3,4-dimethoxyphenyl)-3-isopropyl-1H-indol-5-yl)piperidin-1-yl)-2-(3-(4-(2-hydroxyethyl)piperidine-1-carbonyl)piperidin-1-yl)ethan-1-one], the IC50 came to 73 nM. `COc1ccc(-c2[nH]c3ccc(C4CCN(C(=O)C[C@H](C)N)CC4)cc3c2C(C)C)cc1OC` [Example 253, (S)-3-amino-1-(4-(2-(3,4-dimethoxyphenyl)-3-isopropyl-1H-indol-5-yl)piperidin-1-yl)butan-1-one] returned an IC50 of 19 nM. The same measure for `COc1ccc(-c2[nH]c3ccc(C4CCN(C(=O)CN5CCC[C@H](C(=O)N6CCN(C(C)C)CC6)C5)CC4)cc3c2C(C)C)cc1OC` [Example 286, (S)-1-(4-(2-(3,4-dimethoxyphenyl)-3-isopropyl-1H-indol-5-yl)piperidin-1-yl)-2-(3-(4-isopropylpiperazine-1-carbonyl)piperidin-1-yl)ethan-1-one]: 17 nM.
